The test relates to P388 leukemia ip, CD2F1 mice, survival T/C. The experiment in a line: NCI In Vivo Anticancer Drug Screen. Data for tumor model P388 Leukemia (intraperitoneal) in CD2F1 (CDF1) mice. As to conditions: endpoint: median survival time, higher = longer survival. The method in brief: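 Mice carrying the transplanted tumor received test compound or vehicle. Survival was recorded in each group, and the value is the treated-group measurement divided by that of the vehicle-treated control group.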

Where [1] appears, read: dose: 60.0 mg/kg/injection, schedule: Q01DX005 (ip), vehicle: Klucel (hydroxypropylcellulose) (HPC).
Where [2] appears, read: dose: 50.0 mg/kg/injection, schedule: Q01DX005 (ip), vehicle: Klucel (hydroxypropylcellulose) (HPC).
The mark [3] stands for this setting: dose: 100.0 mg/kg/injection, schedule: Q01DX005 (ip), vehicle: Klucel (hydroxypropylcellulose) (HPC).
Where [4] appears, read: dose: 200.0 mg/kg/injection, schedule: Q01DX005 (ip), vehicle: Klucel (hydroxypropylcellulose) (HPC).
Where [5] appears, read: dose: 50.0 mg/kg/injection, schedule: Q01DX005 (ip), vehicle: saline with Tween-80.
Where [6] appears, read: dose: 60.0 mg/kg/injection, schedule: Q01DX005 (ip), vehicle: saline.
The mark [7] stands for this setting: dose: 120.0 mg/kg/injection, schedule: Q01DX005 (ip), vehicle: saline.
The mark [8] stands for this setting: dose: 240.0 mg/kg/injection, schedule: Q01DX005 (ip), vehicle: saline.
The mark [9] stands for this setting: dose: 50.0 mg/kg/injection, schedule: Q01DX009 (ip), vehicle: saline with Tween-80.
The mark [10] stands for this setting: dose: 100.0 mg/kg/injection, schedule: Q01DX009 (ip), vehicle: saline with Tween-80.
[11] abbreviates: dose: 200.0 mg/kg/injection, schedule: Q01DX009 (ip), vehicle: saline with Tween-80.

“And” between values parts separate entries of the source, which are not always exact repeats. Equal entries are not always repeated. Inconclusive results and toxic doses are left out.

With `COC(=O)C(Cc1cn(C(O)(NC(=O)OCc2ccccc2)C(F)(F)F)cn1)NC(=O)C(NC(=O)C(CC(C)C)NC(=O)C(CSC(c1ccccc1)(c1ccccc1)c1ccccc1)NC(=O)OCc1ccccc1)C(C)C` (stereo unspecified), the T/C under setting [1] is 91 % of control; the T/C (dose: 120.0 mg/kg/injection, schedule: Q01DX005 (ip), vehicle: Klucel (hydroxypropylcellulose) (HPC)) was 110 % of control; the T/C (dose: 240.0 mg/kg/injection, schedule: Q01DX005 (ip), vehicle: Klucel (hydroxypropylcellulose) (HPC)) was 96 % of control.
As to `COc1cc(OC)cc(C2OC(=O)c3c(OC)cc(C)cc32)c1` (stereo unspecified), the T/C is 93 % of control (dose: 100.0 mg/kg/injection, schedule: Q04DX002 (ip), vehicle: saline with Tween-80); 88 % of control (dose: 200.0 mg/kg/injection, schedule: Q04DX002 (ip), vehicle: saline with Tween-80); 90 % of control (dose: 400.0 mg/kg/injection, schedule: Q04DX002 (ip), vehicle: saline with Tween-80).
In the case of `COC(=O)CCC1=C(C)c2cc3[n-]c(cc4nc(cc5[n-]c(cc1n2)c(CCC(=O)OC)c5C)C(C(C)=O)=C4C)c(C(C)=O)c3C.[Cl-].[Fe+3]`, the T/C is 104 % of control under setting [2], 106 % of control under setting [3] and 99 % of control under setting [4].
For the compound `CCN(Cc1cccc(S(=O)(=O)[O-])c1)c1ccc(C(=C2C=CC(=[N+](CC)Cc3cccc(S(=O)(=O)O)c3)C=C2)c2ccccc2S(=O)(=O)O)cc1`, the T/C is, setting by setting: (dose: 50.0 mg/kg/injection, schedule: Q01DX005 (ip), vehicle: saline) 104 % of control; (dose: 100.0 mg/kg/injection, schedule: Q01DX005 (ip), vehicle: saline) 96 % of control; (dose: 200.0 mg/kg/injection, schedule: Q01DX005 (ip), vehicle: saline) 96 % of control.
Regarding `Cn1c2c(c(=O)c3cc(O)ccc31)CC(O)C(C)(C)O2` (stereo unspecified), the T/C was 102 % of control under setting [2], 94 % of control under setting [3] and 86 % of control under setting [4].
Turning to `Nc1ccc(S(=O)(=O)NC2C(O)OC(CO)C(O)C2O)cc1` (stereo unspecified), the T/C reads like this: under setting [5], 98 % of control; (dose: 100.0 mg/kg/injection, schedule: Q01DX005 (ip), vehicle: saline with Tween-80) 96 % of control; (dose: 200.0 mg/kg/injection, schedule: Q01DX005 (ip), vehicle: saline with Tween-80) 97 % of control.
Consider `O=C(NC1(Sc2ccccc2)CC1)c1ccc(Cl)cc1`, for which the T/C by setting is: (dose: 15.0 mg/kg/injection, schedule: Q01DX005 (ip), vehicle: Klucel (hydroxypropylcellulose) (HPC)) 98 % of control; (dose: 30.0 mg/kg/injection, schedule: Q01DX005 (ip), vehicle: Klucel (hydroxypropylcellulose) (HPC)) 88 % of control; under setting [1], 88 % of control.
As for `CC1(C)C[C@@]2(F)C(=O)NC(=O)N[C@@H]12`, the T/C is, setting by setting: (dose: 12.5 mg/kg/injection, schedule: Q01DX001 (ip), vehicle: Klucel (hydroxypropylcellulose) (HPC)) 103 % of control; (dose: 25.0 mg/kg/injection, schedule: Q01DX001 (ip), vehicle: Klucel (hydroxypropylcellulose) (HPC)) 106 % of control; (dose: 50.0 mg/kg/injection, schedule: Q01DX001 (ip), vehicle: Klucel (hydroxypropylcellulose) (HPC)) 99 % of control.
For the compound `Nc1nc(-c2ccc(Cl)cc2)cc(-c2cc(-c3ccc(Cl)cc3)nc(N)n2)n1`, the T/C was 110 % of control under setting [6], 102 % of control under setting [7] and 100 % of control under setting [8].
`COc1ccc2c(c1)c(OC)c(CC(O)C(C)(C)O)c(=O)n2C` (stereo unspecified): the T/C by setting is: (dose: 110.0 mg/kg/injection, schedule: Q01DX001 (ip), vehicle: Klucel (hydroxypropylcellulose) (HPC)) 96 % of control; (dose: 220.0 mg/kg/injection, schedule: Q01DX001 (ip), vehicle: Klucel (hydroxypropylcellulose) (HPC)) 106 % of control; (dose: 440.0 mg/kg/injection, schedule: Q01DX001 (ip), vehicle: Klucel (hydroxypropylcellulose) (HPC)) 110 % of control.
Consider `CC(C)NCC(O)c1ccccc1Cl` (stereo unspecified), for which the T/C (dose: 12.5 mg/kg/injection, schedule: Q01DX005 (ip), vehicle: saline with Tween-80) is 100 % of control; the T/C (dose: 25.0 mg/kg/injection, schedule: Q01DX005 (ip), vehicle: saline with Tween-80) was 104 % of control; the T/C under setting [5] is 100 % of control and 90 % of control.
Turning to `CC12CC3(C)C(Br)C3CC1O2` (stereo unspecified), the T/C runs as follows: (dose: 44.5 mg/kg/injection, schedule: Q01DX005 (ip), vehicle: saline with Tween-80) 97 % of control; (dose: 89.0 mg/kg/injection, schedule: Q01DX005 (ip), vehicle: saline with Tween-80) 99 % of control; (dose: 178.0 mg/kg/injection, schedule: Q01DX005 (ip), vehicle: saline with Tween-80) 99 % of control.
With `Clc1ncnc2c1ncn2C1C=CC=CC=C1`, the T/C runs as follows: under setting [2], 90 % of control; under setting [3], 92 % of control; under setting [4], 91 % of control.
For `CCOC(=O)C1=C(C)OC(N)=C(C#N)C12C(=O)N(C)C(=O)c1ccccc12` (stereo unspecified) the same measures were 101 % of control, 103 % of control and 96 % of control.
For `O=C1OCC23CC(=O)C(O)(c4oc(CO)cc(=O)c4O)C(CC12)O3` (stereo unspecified), the T/C (dose: 25.0 mg/kg/injection, schedule: Q01DX009 (ip), vehicle: saline with Tween-80) is 97 % of control; the T/C under setting [9] was 100 % of control; the T/C under setting [10] was 100 % of control.
With `COc1cc2c(cc1OC)C13CC[N+]4([O-])CC5=CCOC6CC(=O)N2C1C6C5CC34` (stereo unspecified), the T/C by setting is: (dose: 15.0 mg/kg/injection, schedule: Q01DX005 (ip), vehicle: saline) 107 % of control; (dose: 30.0 mg/kg/injection, schedule: Q01DX005 (ip), vehicle: saline) 108 % of control; under setting [6], 106 % of control and 107 % of control; under setting [7], 100 % of control; under setting [8], 97 % of control.
With `O=C(NC(=O)c1c(F)cccc1F)Nc1cccc(Oc2ncc(Cl)cn2)c1`, the T/C reads like this: (dose: 15.0 mg/kg/injection, schedule: Q01DX005 (ip), vehicle: saline with Tween-80) 111 % of control; (dose: 30.0 mg/kg/injection, schedule: Q01DX005 (ip), vehicle: saline with Tween-80) 96 % of control; (dose: 60.0 mg/kg/injection, schedule: Q01DX005 (ip), vehicle: saline with Tween-80) 94 % of control and 95 % of control.
Regarding `CC1=CC=CC(C)(C(Cl)Cl)C1=O` (stereo unspecified), the T/C under setting [9] is 109 % of control, the T/C under setting [10] is 104 % of control and the T/C under setting [11] was 109 % of control.
Consider `CN1NC(C)(c2ccccn2)SC1=S` (stereo unspecified), for which the T/C is 98 % of control under setting [9], 91 % of control under setting [10] and 90 % of control under setting [11].
On to `C=C(OC)C(Nc1cc(OC)c(OC)cc1C(=O)OC1CC(O[C@@H]2C(=O)C(NC(=O)OC)=C3/C(=C\CSSSC)[C@]2(O)C#C/C=C\C#C[C@@H]3OC2OC(C)C(NOC3CC(O)C(SC)C(C)O3)C(O)C2OC2CC(OC)C(NCCC)CO2)OC(C)C1O)OC` (stereo partly specified), for which the T/C by setting is: (dose: 1.28 micrograms/kg/injection, schedule: Q01DX005 (ip), vehicle: alcohol) 163 % of control; (dose: 2.5 micrograms/kg/injection, schedule: Q01DX005 (ip), vehicle: saline + alcohol) 88 % of control; (dose: 2.5 nanograms/kg/injection, schedule: Q01DX005 (ip), vehicle: saline + alcohol) 120 % of control; (dose: 2.56 micrograms/kg/injection, schedule: Q01DX005 (ip), vehicle: alcohol) 155 % of control and 177 % of control; (dose: 5.0 nanograms/kg/injection, schedule: Q01DX005 (ip), vehicle: saline + alcohol) 118 % of control; (dose: 5.12 micrograms/kg/injection, schedule: Q01DX005 (ip), vehicle: alcohol) 115 % of control. The T/C (dose: 10.0 nanograms/kg/injection, schedule: Q01DX005 (ip), vehicle: saline + alcohol) was 123 % of control; the T/C (dose: 320.0 nanograms/kg/injection, schedule: Q01DX005 (ip), vehicle: saline + alcohol) was 164 % of control; the T/C (dose: 640.0 nanograms/kg/injection, schedule: Q01DX005 (ip), vehicle: saline + alcohol) is 174 % of control; the T/C (dose: 1280.0 nanograms/kg/injection, schedule: Q01DX005 (ip), vehicle: saline + alcohol) is 95 % of control.
Regarding `CCc1ccc2c(c1)N(CCCN(CCCl)CCCl)c1ccccc1S2`, the T/C is 106 % of control (dose: 0.78 mg/kg/injection, schedule: Q01DX009 (ip), vehicle: saline with Tween-80); 101 % of control and 115 % of control (dose: 1.56 mg/kg/injection, schedule: Q01DX009 (ip), vehicle: saline with Tween-80).

For the origin of these results see PubChem BioAssay AID330 (DTP/NCI, 2004).
